# Test results from patent US20150104399A1, “PREVENTION OF FIBROBLAST COLLAPSE” (Biocogent, LLC, priority 2012, published 2015).
# Key:
# [1] = tested on: skin fibroblasts; experiment: Viability of fibroblasts exposed to BSA reacted with ribose, resazurin dye; format: cell-based; settings: positive control for preventing glycation; human dermal fibroblasts exposed to glycated protein
# Description: In some examples discussed herein, comparison was made between the skin care compositions of the present technology and those containing pyridoxamine as a positive control. It was shown that a population of human dermal fibroblasts (HDFs) exposed to glycated proteins is generally expected to collapse. Specifically, glycated protein (such as bovine serum albumin, BSA), when added to normally cultured skin fibroblasts at a concentration in the range of 2 to 6 mg/mL, caused cell death within approximately 18 to 36 hours. […] A series of tests was conducted to evaluate the skin care compositions of the present technology, to see whether they could prevent the target protein of BSA from being toxic to skin fibroblasts. This was done by first reacting BSA with the sugar (ribose) in a buffered saline solution. Some of the reaction mixtures also contained pyridoxamine (a drug used here as the positive control known to prevent glycation) or the skin care compositions of the present technology. […] After exposure of the cells to these solutions at 37° C. for 24 hours, the viability of the cells was determined by adding a dye (resazurin) to the wells and incubating at 37° C. for another hour. […] The color change in the wells was then measured as optical density on a plate-reading spectrophotometer. […]
# [2] = tested on: skin fibroblasts; experiment: Viability and attachment of confluent fibroblasts exposed to BSA reacted with ribose, neutral red dye, microscopy; format: cell-based, human; settings: BSA reacted with 100 millimolar ribose in presence of 10 millimolar pyridoxamine; 2 mg/mL BSA, 16 hours; FIG. 6
# Description: A further series of tests was conducted to evaluate the skin care compositions of the present technology, to see whether they could prevent the target protein of BSA from being toxic to skin fibroblasts. This was done by first reacting BSA with the glycating sugar (ribose) in a buffered saline solution. Some of the reaction mixtures also contained pyridoxamine (a drug used here as the positive control known to prevent glycation) or the skin care compositions of the present technology. For this test, incubation of the sterile reaction mixtures was for two days at a temperature of about 45° C. After that, the reaction mixtures were extensively dialyzed against deionized water, removing all of the small molecules (ribose, salts, etc.) from the mixtures, leaving just the BSA. The resulting BSA solutions were then lyophilized (freeze-dried) to remove water, and the residues of BSA were resolubilized in a buffered saline solution. After measuring the protein concentration of each of these solutions, they were each added to a cell culture dish containing confluent fibroblasts to achieve a final BSA concentration of 2 milligrams per milliliter. After exposure of the cells to these solutions at 37° C. for 16 hours, the viability of the cells was determined by adding a dye (neutral red) to the plates and incubating at 37° C. for another hour. […]
structure (smiles),measurement,setting,value
Cc1ncc(CO)c(CN)c1O [pyridoxamine],effect on fibroblast collapse,[1],mitigated some of the collapse
same,"health of fibroblasts (neutral red uptake, attachment)",[2],have remained healthy
